Reference: patent US20060229302A1, “Tricyclic indole derivatives and their use in the treatment of alzheimer's disease” (priority 2003, published 2006)
Counter-ions that a name gives are not always drawn.

The compounds below were run against Asp-2 (Homo sapiens, UniProt P56817) (assay: Asp-2 inhibitory assay). Details: not given.
Assay type: biochemical
Experimental: (I) Asp-2 Inhibitory Assay
For each compound being assayed, in a 384 well plate, is added:
This is prepared by diluting 2 ml of a 2 mM DMSO solution of the substrate into 400 ml of buffer (100 mM Sodium acetate pH=4.5, 1 l Milli-Q water, 0.06% Triton X-100 (0.5 ml/l), pH adjusted to 4.5 using glacial acetic acid).
c) 10 μl enzyme solution. This is prepared by diluting 16 ml of a 500 nM enzyme solution into 384 ml of buffer (prepared as above).
Blank wells (enzyme solution replaced by buffer) are included as controls on each plate.

Chain of Asp-2 (P56817 46-501): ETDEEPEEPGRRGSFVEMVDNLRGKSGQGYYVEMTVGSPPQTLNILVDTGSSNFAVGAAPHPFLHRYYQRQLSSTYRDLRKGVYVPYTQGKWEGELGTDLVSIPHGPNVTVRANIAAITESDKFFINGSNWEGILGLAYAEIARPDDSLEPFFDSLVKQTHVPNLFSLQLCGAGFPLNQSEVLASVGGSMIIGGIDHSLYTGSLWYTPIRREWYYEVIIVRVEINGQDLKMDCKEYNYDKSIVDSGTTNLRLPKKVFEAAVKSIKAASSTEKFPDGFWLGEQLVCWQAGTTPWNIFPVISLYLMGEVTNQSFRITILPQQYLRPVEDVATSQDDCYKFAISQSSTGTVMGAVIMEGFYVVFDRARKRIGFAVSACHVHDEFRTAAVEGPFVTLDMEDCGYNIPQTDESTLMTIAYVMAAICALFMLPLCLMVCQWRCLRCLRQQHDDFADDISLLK

IC50 [nM] | SMILES
< 1000 | CCc1cn2c3c(cc(C(=O)N[C@@H](Cc4ccccc4)[C@H](O)CNC4CCCCC4)cc13)N(C)S(=O)(=O)CC2 [Example E7, N-[(1S,2R)-3-(Cyclohexylamino)-2-hydroxy-1-(phenylmethyl)propyl]-7-ethyl-1-methyl-3,4-dihydro-1H-[1,2,5]thiadiazepino[3,4,5-hi]indole-9-carboxamide 2,2-dioxide formate salt]

Same assay, conditions: FAM-[[…]]-TAMRA substrate, pH 4.5, 1 h room temperature; read-out: inhibition in the Asp-2 inhibitory assay

SMILES | IC50 [nM]
CCCc1cn2c3c(cc(C(=O)N[C@@H](Cc4ccccc4)[C@H](O)CNCc4cccc(C(F)(F)F)c4)cc13)N(C)S(=O)(=O)CC2 [Example E44, N-[(1S,2R)-2-Hydroxy-1-(phenylmethyl)-3-({[3-(trifluoromethyl)phenyl]methyl}amino)propyl]-1-methyl-7-propyl-3,4-dihydro-1H-[1,2,5]thiadiazepino[3,4,5-hi]indole-9-carboxamide 2,2-dioxide formate salt] | < 1000
CCc1cn2c3c(cc(C(=O)N[C@@H](Cc4ccccc4)[C@H](O)CNC(C)(C)CCCC(C)C)cc13)N(C)S(=O)(=O)CC2 [Example E10, 7-Ethyl-N-{(1S,2R)-2-hydroxy-1-(phenylmethyl)-3-[(1,1,5-trimethylhexyl)amino]propyl}-1-methyl-3,4-dihydro-1H-[1,2,5]thiadiazepino[3,4,5-hi]indole-9-carboxamide 2,2-dioxide formate salt] | < 1000
CCc1cn2c3c(cc(C(=O)N[C@@H](Cc4ccccc4)[C@H](O)CNCc4cccc(OC)c4)cc13)N(C)S(=O)(=O)CC2 [Example E3, 7-Ethyl-N-[(1S,2R)-2-hydroxy-3-({[3-(methyloxy)phenyl]methyl}amino)-1-(phenylmethyl)propyl]-1-methyl-3,4-dihydro-1H-[1,2,5]thiadiazepino[3,4,5-hi]indole-9-carboxamide 2,2-dioxide] | < 1000
CCc1cn2c3c(cc(C(=O)N[C@@H](Cc4ccccc4)[C@H](O)CNCc4cccc(C(F)(F)F)c4)cc13)N(C)S(=O)(=O)C(C)C2 (stereo partly drawn) [Example E6, 7-Ethyl-N-[(1S,2R)-2-hydroxy-1-(phenylmethyl)-3-({[3-(trifluoromethyl)phenyl]methyl}amino)propyl]-1,3-dimethyl-3,4-dihydro-1H-[1,2,5]thiadiazepino [3,4,5-hi]indole-9-carboxamide 2,2-dioxide formate salt] | < 1000
CCc1cn2c3c(cc(C(=O)N[C@@H](Cc4ccccc4)[C@H](O)CNCc4cnn(CC)c4)cc13)N(C)S(=O)(=O)CC2 [Example E15, 7-Ethyl-N-[(1S,2R)-3-{[(1-ethyl-1H-pyrazol-4-yl)methyl]amino}-2-hydroxy-1-(phenylmethyl)propyl]-1-methyl-3,4-dihydro-1H-[1,2,5]thiadiazepino[3,4,5-hi]indole-9-carboxamide 2,2-dioxide formate salt] | < 1000
CCc1cn2c3c(cc(C(=O)N[C@@H](Cc4ccccc4)[C@H](O)CNC(C)(C)c4cccc(C(F)(F)F)c4)cc13)N(C)S(=O)(=O)CC2 [Example E11, 7-Ethyl-N-[(1S,2R)-2-hydroxy-3-({1-methyl-1-[3-(trifluoromethyl)phenyl]ethyl}amino)-1-(phenylmethyl)propyl]-1-methyl-3,4-dihydro-1H-[1,2,5]thiadiazepino[3,4,5-hi]indole-9-carboxamide 2,2-dioxide formate salt] | < 1000
CCc1cn2c3c(cc(C(=O)N[C@@H](Cc4ccccc4)[C@H](O)CNC(C)(C)c4cccc(OC)c4)cc13)N(C)S(=O)(=O)C(C)C2 (stereo partly drawn) [Example E13, 7-Ethyl-N-[(1S,2R)-2-hydroxy-3-({1-methyl-1-[3-(methyloxy)phenyl]ethyl}amino)-1-(phenylmethyl)propyl]-1,3-dimethyl-3,4-dihydro-1H-[1,2,5]thiadiazepino[3,4,5-hi]indole-9-carboxamide 2,2-dioxide formate salt] | < 1000
CCc1cn2c3c(cc(C(=O)N[C@@H](Cc4ccccc4)[C@H](O)CNCc4cccc(OC)c4)cc13)N(c1ccccc1)S(=O)(=O)CC2 [Example E4, 7-Ethyl-N-[(1S,2R)-2-hydroxy-3-({[3-(methyloxy)phenyl]methyl}amino)-1-(phenylmethyl)propyl]-1-phenyl-3,4-dihydro-1H-[1,2,5]thiadiazepino[3,4,5-hi]indole-9-carboxamide 2,2-dioxide] | < 1000
CCc1cn2c3c(cc(C(=O)N[C@@H](Cc4ccccc4)[C@H](O)CNC(C)(C)CCCC(C)C)cc13)N(C)S(=O)(=O)C(C)C2 (stereo partly drawn) [Example E9, 7-Ethyl-N-{(1S,2R)-2-hydroxy-1-(phenylmethyl)-3-[(1,1,5-trimethylhexyl)amino]propyl}-1,3-dimethyl-3,4-dihydro-1H-[1,2,5]thiadiazepino[3,4,5-hi]indole-9-carboxamide 2,2-dioxide formate salt] | < 1000
CCc1cn2c3c(cc(C(=O)N[C@@H](Cc4cccc(Cl)c4)[C@H](O)CNC4CCCCC4)cc13)N(C)S(=O)(=O)CC2 [Example E32, N-[(1S,2R)-1-[(3-Chlorophenyl)methyl]-3-(cyclohexylamino)-2-hydroxypropyl]-7-ethyl-1-methyl-3,4-dihydro-1H-[1,2,5]thiadiazepino[3,4,5-hi]indole-9-carboxamide 2,2-dioxide formate salt] | < 1000
CCc1cn2c3c(cc(C(=O)N[C@@H](Cc4ccccc4)[C@H](O)CNCc4cnn(CC)c4)cc13)N(C)S(=O)(=O)C(C)C2 (stereo partly drawn) [Example E16, 7-Ethyl-N-[(1S,2R)-3-{[(1-ethyl-1H-pyrazol-4-yl)methyl]amino}-2-hydroxy-1-(phenylmethyl)propyl]-1,3-dimethyl-3,4-dihydro-1H-[1,2,5]thiadiazepino[3,4,5-hi]indole-9-carboxamide 2,2-dioxide formate salt] | < 1000
CCCc1cn2c3c(cc(C(=O)N[C@@H](Cc4ccccc4)[C@H](O)CNCc4cnn(CC)c4)cc13)N(C)S(=O)(=O)CC2 [Example E47, N-[(1S,2R)-3-{[(1-Ethyl-1H-pyrazol-4-yl)methyl]amino}-2-hydroxy-1-(phenylmethyl)propyl]-1-methyl-7-propyl-3,4-dihydro-1H-[1,2,5]thiadiazepino[3,4,5-hi]indole-9-carboxamide 2,2-dioxide formate salt] | < 1000

Now from value to compound:

IC50 [nM] | SMILES
< 1000 | CCc1cc(CNC[C@@H](O)[C@H](Cc2ccccc2)NC(=O)c2cc3c4c(c2)c(CC)cn4CCS(=O)(=O)N3C)on1 [Example E104, 7-Ethyl-N-[(1S,2R)-3-{[(3-ethyl-5-isoxazolyl)methyl]amino}-2-hydroxy-1-(phenylmethyl)propyl]-1-methyl-3,4-dihydro-1H-[1,2,5]thiadiazepino[3,4,5-hi]indole-9-carboxamide 2,2-dioxide]
< 1000 | CCCc1cn2c3c(cc(C(=O)N[C@@H](Cc4ccccc4)[C@H](O)CNCc4cccc(C(F)(F)F)c4)cc13)N(CC)S(=O)(=O)CC2 [Example E48, 1-Ethyl-N-[(1S,2R)-2-hydroxy-1-(phenylmethyl)-3-({[3-(trifluoromethyl)phenyl]methyl}amino)propyl]-7-propyl-3,4-dihydro-1H-[1,2,5]thiadiazepino[3,4,5-hi]indole-9-carboxamide 2,2-dioxide formate salt]
< 1000 | CCc1cn2c3c(cc(C(=O)N[C@@H](Cc4ccccc4)[C@H](O)CN[C@H]4CCc5ccccc54)cc13)N(C)S(=O)(=O)CC2 [Example E72, N-[(1S,2R)-3-[(1S)-2,3-Dihydro-1H-inden-1-ylamino]-2-hydroxy-1-(phenylmethyl)propyl]-7-ethyl-1-methyl-3,4-dihydro-1H-[1,2,5]thiadiazepino[3,4,5-hi]indole-9-carboxamide 2,2-dioxide formate salt]
< 1000 | CCc1cn2c3c(cc(C(=O)N[C@@H](Cc4ccccc4)[C@H](O)CNC4CCC(F)(F)CC4)cc13)N(C)S(=O)(=O)CC2 [Example E106, N-[(1S,2R)-3-[(4,4-Difluorocyclohexyl)amino]-2-hydroxy-1-(phenylmethyl)propyl]-7-ethyl-1-methyl-3,4-dihydro-1H-[1,2,5]thiadiazepino[3,4,5-hi]indole-9-carboxamide 2,2-dioxide formate salt]
< 1000 | CCc1cn2c3c(cc(C(=O)N[C@@H](Cc4ccccc4)[C@H](O)CN[C@@H](C)C(=O)NC4CCCCC4)cc13)N(C)S(=O)(=O)CC2 [Example E105, N-[(1S,2R)-3-{[(1S)-2-(Cyclohexylamino)-1-methyl-2-oxoethyl]amino}-2-hydroxy-1-(phenylmethyl)propyl]-7-ethyl-1-methyl-3,4-dihydro-1H-[1,2,5]thiadiazepino[3,4,5-hi]indole-9-carboxamide 2,2-dioxide]
< 1000 | CCc1cn2c3c(cc(C(=O)N[C@@H](Cc4ccccc4)[C@H](O)CNC(C)(C)c4cccc(C(F)(F)F)c4)cc13)N(C)S(=O)(=O)C2 [Example E79, 6-Ethyl-N-[(1S,2R)-2-hydroxy-3-({1-methyl-1-[3-(trifluoromethyl)phenyl]ethyl}amino)-1-(phenylmethyl)propyl]-1-methyl-1H-[1,2,5]thiadiazino[3,4,5-hi]indole-8-carboxamide 2,2-dioxide formate salt]
< 1000 | CCc1cn2c3c(cc(C(=O)N[C@@H](Cc4ccccc4)[C@H](O)CNCc4cccc(OC(F)(F)F)c4)cc13)N(C)S(=O)(=O)CC2 [Example E67, 7-Ethyl-N-{(1S,2R)-2-hydroxy-1-(phenylmethyl)-3-[({3-[(trifluoromethyl)oxy]phenyl}methyl)amino]propyl}-1-methyl 3,4-dihydro-1H-[1,2,5]thiadiazepino[3,4,5-hi]indole-9-carboxamide 2,2-dioxide formate salt]
